Consider one compound from patent publication US11731977B2, “SGC stimulators” (Cyclerion Therapeutics, Inc., priority 2016, dated 2023).

The subject of assay [1] is cAMP response element-binding protein (CREB). As to the kind of experiment: pCREB phosphorylation in rat primary neurons (Example 12). The assay is classed as cell-based. As to conditions: Primary neuron, 10 μM DETA-NONOate. The source says:
Objective. To assess the ability of Compound I-1 to activate cAMP response element-binding protein (CREB) in rat primary neurons. CREB is a cellular transcription factor. It binds to DNA sequences called cAMP response elements (CRE), and regulates transcription of the downstream genes (See Bourtchuladze R, et al., Cell 1994; 79 (1): 59-68). […] CREB proteins are activated by phosphorylation of Serine 133 by various kinases, including cAMP-dependent protein kinase or Protein Kinase A (PKA), cGMP-dependent protein kinase or Protein Kinase G (PKG), and Ca2+/calmodulin-dependent protein kinases. (See Shaywitz A J and Greenberg M E, Annual Review of Biochemistry 1999; 68 (1): 821-861 and Wong J C, et al., J Cell Biochem 2012: 113(11):3587-98). Stimulation of CREB could have therapeutic benefits for diseases in which cognition, neuronal plasticity, and or neuronal function is impaired.
Compounds. Compound I-1 was dissolved in DMSO as a 10 mM solution and stored at −20° C. […]
Assay Conditions. […] Medium was removed and cell were lysed and assay was performed according to Cisbio protocol (phospho-CREB (Ser133) catalog #64CREPEG) and the plate was read using Envision instrument (PerkinElmer).
Data Analysis. Data were analyzed with a 4-parameter fit (log(agonist) vs. response—variable slope) using GraphPad Prism Software v.7. […]

In assay [2] the test system is rats. As to the kind of experiment: Post-operative pain: Brennan model, electronic Von Frey test (Example 13). As to conditions: Compound I-1 p.o. 10 mg/kg, 120 minutes after treatment. The assay is classed as in vivo, rat. The source says:
Surgery: Surgery was done under gas anesthesia (2.5% isoflurane/3 L/min). For all rats, the plantar aspect of the left hind paw was exposed and a 1 cm longitudinal incision was made using a surgical blade, through the skin and fascia of the plantar aspect of the foot, starting 0.5 cm from the proximal edge of the heel and extending toward the toes. The plantaris muscle was elevated and incised longitudinally whereas the insertions remained intact. After hemostasis with gentle pressure, the skin was stitched up with two sutures. After surgery, animals recovered in their cages.
Electronic Von Frey Test: Tactile allodynia was assessed using the electronic Von Frey test 24 h after surgery. […] The apparatus exerted a steady force on the hind paws. […] Each reaction threshold measurement was repeated three times for both hind paws with intervals of approximately 2 to 3 mins.

Assay [3] concerns rats. As to the kind of experiment: Acute and tonic pain: formalin test, score (Example 13). As to conditions: Compound I-1 p.o. 10 mg/kg, 120 minutes after treatment. The assay is classed as in vivo, rat. The method, then:
Formalin Test. 2.5% formalin solution was injected by subplantar route into the right hind paw. Scoring of pain behavior was performed in rats for 36 minutes every 3 minutes according to the following scores:
0=normal behavior of the injected hind limb to support the body
1=slight touching of the injected paw on the floor to lightly support or not support the body
2=total withdrawal of the injected paw
3=licking, biting or shaking of the injected paw

Like-named read-outs stand apart in the source and are kept apart here.

The term EC50 denotes the concentration that produces a half-maximal response.

As for `Fc1ccccc1Cc1nc(-c2nc(C(F)(F)F)n[nH]2)cn2ccnc12` [Compound I-1, 8-(2-fluorobenzyl)-6-(3-(trifluoromethyl)-1H-1,2,4-triazol-5-yl)imidazo[1,2-a]pyrazine], the EC50 was 0.5 to 17.8 nM in assay [1] (read-out: 95% confidence interval of EC50, phosphorylation of CREB at Ser133) and 3 nM in assay [1] (0.5 h, 30 min, read-out: EC50, phosphorylation of CREB at Ser133). Moreover, the results for the “% of activity vs. vehicle” value in the assay with rats [2], in the assay with rats [3] (Formalin test - score (early phase)) and with rats [3] (Formalin test - score (late phase)) were 31%, 57% and 32%, respectively.
